Experimental data taken from publication PMC10816808, “Enhancement of the Antitumor and Antimetastatic Effect of Topotecan and Normalization of Blood Counts in Mice with Lewis Carcinoma by Tdp1 Inhibitors—New Usnic Acid Derivatives” (International Journal of Molecular Sciences, 2024).
“And” between values parts separate entries of the source, which are not always exact repeats. Equal values may be shown once.

Assays:
[1] = Topotecan cytotoxicity with Tdp1 inhibitor (MTT), MRC-5; format: cell-based; conditions: human, MRC-5 cells (lung fibroblasts, nontumor); topotecan alone or in the presence of 5 µM Tdp1 inhibitor
Excerpt: (§1) Tdp1 inhibitors combined with topotecan dramatically reduce tumor metastasis. Usnic acid derivatives of the enamine and hydrazonothiazole series turned out to be promising sensitizers of the action of topotecan both on cultured cell lines and on mouse tumors in vivo [30, 32]. We studied the ability of the usnic acid derivatives to sensitize the effects of topotecan on the same panel of cell lines. We used two non-cancerous cell lines MRC-5 and HEK293A, including previously obtained HEK293A Tdp1 knockout cells (for compound 7), and cancerous cell lines HeLa, HCT-116, A-549, MCF-7, T98G. We found the most pronounced and reliable sensitizing effect on cancerous cell lines HeLa, HCT-116, A-549, MCF-7 only for compound 7 (Table 2 and Figures S2 and S3).
(§2) Cytotoxicity of the compounds against human tumor cell lines: HeLa (cervical cancer), HCT-116 (colorectal cancer), A-549 (lung cancer), MCF-7 (breast cancer), T98G (glioblastoma), HepG2 (hepatocarcinoma), and nontumor cell lines: MRC-5 (lung fibroblasts) and HEK293A (human embryonic kidney) was examined using the MTT test. HCT-116 and MRC-5 cell lines were provided by the Cell Culture Bank of the State Research Center for Virology and Biotechnology Vector, Novosibirsk, Russia. A-549, MCF-7, and T98G cell lines were obtained from the Russian Cell Culture Collection (RCCC) Institute of Cytology RAS (St. Petersburg, Russia). […]

HeLa = test: Topotecan cytotoxicity with Tdp1 inhibitor (MTT), HeLa; format: cell-based; conditions: Homo sapiens, topotecan alone or in the presence of 5 µM Tdp1 inhibitor
Excerpt: as §1, §2

[2] = Topotecan cytotoxicity with Tdp1 inhibitor (MTT), HEK293A; format: cell-based; conditions: human, HEK293A cells (embryonic kidney, nontumor); topotecan alone or in the presence of 5 µM Tdp1 inhibitor
Excerpt: as §1, §2

MCF-7 = test: Topotecan cytotoxicity with Tdp1 inhibitor (MTT), MCF-7; format: cell-based; conditions: Homo sapiens, MCF7; topotecan alone or in the presence of 5 µM Tdp1 inhibitor
Excerpt: as §1, §2

[3] = Toxic effect in mice with LLC (body weight, liver and spleen indices)
Excerpt: (§3) We also studied the effect of topotecan, compound 7, and their combinations on changes in body weight of mice with LLC from days 1 to 18 after tumor transplantation and of mice with Krebs-2 carcinoma from days 1 to 8.
(§4) In addition, at the end of the experiments, we removed and weighed the liver and spleen, and calculated the liver and spleen indices.
(§5) The toxic effects of the substances were inferred from the changes in body weight during the experiment (the mice with LLC were weighed on days 1, 3, 5, 7, 10, 12, 14, 16, and 18 after grafting) and the liver and spleen weight indices at the end of the experiment.

[4] = Toxic effect in mice with Krebs-2 carcinoma (body weight, liver and spleen indices); format: in vivo; conditions: for Weight of an individual with ascites / Weight of an individual without ascites: individual animals, mice with Krebs-2; for organ index, Liver (group mean) / organ index, Spleen (group mean): mice with Krebs-2 carcinoma
Excerpt: as §3, §4, §5

Tdp1 = target: T1, Tdp1 (Homo sapiens, UniProt Q9NUW8); test: Tdp1 inhibition, fluorescent oligonucleotide biosensor; format: biochemical; conditions: purified Tdp1 1.5 nM, 50 nM biosensor; read-out: Concentration of half-maximal inhibition of Tdp1 (IC50)
T1 construct: Purified Tdp1 (1.5 nM) triggered the reaction
T1 sequence (Q9NUW8 whole entry): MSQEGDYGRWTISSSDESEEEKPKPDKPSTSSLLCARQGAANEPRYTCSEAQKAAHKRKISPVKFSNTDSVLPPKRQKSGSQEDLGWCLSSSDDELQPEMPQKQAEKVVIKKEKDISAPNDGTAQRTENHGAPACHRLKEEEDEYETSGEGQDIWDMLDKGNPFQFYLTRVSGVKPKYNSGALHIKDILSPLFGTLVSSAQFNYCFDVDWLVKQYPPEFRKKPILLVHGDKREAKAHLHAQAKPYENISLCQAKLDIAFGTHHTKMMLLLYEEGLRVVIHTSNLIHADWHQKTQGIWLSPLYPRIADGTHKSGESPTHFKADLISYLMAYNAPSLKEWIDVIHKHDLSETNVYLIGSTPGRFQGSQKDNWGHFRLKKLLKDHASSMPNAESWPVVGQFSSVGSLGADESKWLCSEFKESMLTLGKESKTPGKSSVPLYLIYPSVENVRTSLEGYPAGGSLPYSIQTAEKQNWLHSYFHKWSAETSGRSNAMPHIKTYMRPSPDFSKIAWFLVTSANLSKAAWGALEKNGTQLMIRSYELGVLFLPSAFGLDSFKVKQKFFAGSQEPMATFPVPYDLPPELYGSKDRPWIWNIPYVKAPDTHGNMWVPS
Excerpt: The inhibitory properties of the compound on the purified Tdp1 was studied using a technique developed previously by our team. A 16-mer single-stranded oligonucleotide carrying a fluorophore at the 5′-end and a quencher at the 3′-end was used as a biosensor. When within the Förster radius, the quencher suppressed the fluorescence of the fluorophore. The quencher was removed by Tdp1, resulting in fluorescence emission. Usnic acid derivatives with a bromophenol residue in the enamine fragment (compounds 6 and 8) inhibit the enzyme with half-maximal inhibition concentrations (IC50) an order of magnitude worse than derivatives with a di-tert-butyl fragment (compounds 5 and 7).
An oligonucleotide 5′-[FAM] AAC GTC AGGGTC TTC C [BHQ1]-3′ synthesized in the laboratory Laboratory of Nucleic Acids Chemistry at the Institute of Chemical Biology and Fundamental Medicine (Novosibirsk, Russia) was used as a biosensor. Removal of the quencher (BHQ1) due to enzyme activity leads to increased fluorescence of FAM. The reaction was carried out at different concentrations of inhibitors (1.5% of DMSO, Sigma, St. Louis, MO, USA, in the control samples). The reaction mixtures contained Tdp1 buffer (50 mM Tris-HCl pH 8.0, 50 mM NaCl, and 7 mM β-mercaptoethanol), 50 nM biosensor, and an inhibitor being tested. Purified Tdp1 (1.5 nM) triggered the reaction.
The fluorescence was measured using POLARstar OPTIMA fluorimeter (BMG LABTECH, GmbH, Ortenberg, Germany). The values of IC50 were determined in minimum three independent experiments and were calculated using embedded software MARS Data Analysis 2.0 (BMG LABTECH, GmbH, Ortenberg, Germany).

[5] = MTT cytotoxicity test, HCT-116; format: cell-based; conditions: human, HCT-116 cells (colorectal cancer), read-out: semitoxic concentration (CC50), HCT-116
Excerpt: (§6) Compounds 6 and 8 with a bromophenol residue in the enamine fragment have a weak or moderate effect on cell survival (Table 1 and Supplementary Figure S1).
(§7) Cytotoxicity of the compounds against human tumor cell lines: HeLa (cervical cancer), HCT-116 (colorectal cancer), A-549 (lung cancer), MCF-7 (breast cancer), T98G (glioblastoma), HepG2 (hepatocarcinoma), and nontumor cell lines: MRC-5 (lung fibroblasts) and HEK293A (human embryonic kidney) was examined using the MTT test. HCT-116 and MRC-5 cell lines were provided by the Cell Culture Bank of the State Research Center for Virology and Biotechnology Vector, Novosibirsk, Russia. A-549, MCF-7, and T98G cell lines were obtained from the Russian Cell Culture Collection (RCCC) Institute of Cytology RAS (St. Petersburg, Russia). HEK293A cells were purchased (ThermoFisher Scientific, Waltham, MA, USA).
(§8) The cell culture medium DMEM medium (Invitrogen, Carlsbad, CA, USA) contained 10% fetal bovine serum (FBS) (Invitrogen), penicillin (100 units/mL), and streptomycin (100 µg/mL). Cells were seeded into 96-well plates at 5000 cells per well and grown at 37 °C and 5% CO2 in a humid atmosphere. At 30–50% confluence, the tested compounds were added to the medium to a final DMSO content of 1%. Control wells contained 1% DMSO. To determine the cytotoxicity of Tdp1 inhibitors, the cells were treated with compounds with concentrations ranging from 1 to 100 µM for 72 h at 37 °C for 72 h. All measurements were repeated a minimum of twice.

[6] = MTT cytotoxicity test, HeLa; format: cell-based; conditions: human, HeLa cells (cervical cancer), read-out: semitoxic concentration (CC50), HeLa
Excerpt: as §6, §7, §8

[7] = MTT cytotoxicity test, MCF-7; format: cell-based; conditions: human, MCF-7 cells (breast cancer), read-out: semitoxic concentration (CC50), MCF-7
Excerpt: as §6, §7, §8

[8] = MTT cytotoxicity test, MRC-5; format: cell-based; conditions: human, MRC-5 cells (lung fibroblasts, nontumor), read-out: semitoxic concentration (CC50), MRC-5
Excerpt: as §6, §7, §8

[9] = tested on: various types of cultured cells; test: MTT test, panel of cultured cell lines; format: cell-based; conditions: at concentrations up to 100 μM; wide panel of tumor and non-cancerous cell lines
Excerpt: as §6, §7
as §8, with “To determine the cytotoxicity of Tdp1 inhibitors, the cells were treated with compounds with concentrations ranging from 1 to 100 µM for 72 h at 37 °C for 72 h. All measurements were repeated a minimum of twice.” left out

[10] = Tpc 1 mg/kg i/p and/or 7 50 mg/kg i/p
[11] = 7 50 mg/kg i/g, alone or with Tpc 1 mg/kg i/p

## CC[C@@]1(O)C(=O)OCc2c1cc1n(c2=O)Cc2cc3c(CN(C)C)c(O)ccc3nc2-1 [Tpc, topotecan]
[1]
  CC50: > 10 µM
HeLa
  CC50: 9.9 µM
[2]
  CC50: 0.033 µM
MCF-7
  CC50: 1.4 µM
[3]; mice with LLC and mice with Krebs-2 carcinoma
  tolerability / acute toxic effect (in words): well tolerated and did not cause acute toxic effect
[3]; mouse, in vivo
  changes in body weight of mice (in words): tendency towards an increase in the weight of animals
  organ index, Liver (group mean): 5.6±0.7%
  organ index, Spleen (group mean): 1.19±0.04%
[4]; [10]
  Weight of an individual with ascites: 21 g and 23.5 g and 23.4 g and 21.2 g and 22.9 g and 21.4 g and 21.9 g
  Weight of an individual without ascites: 18.7 g and 17.9 g and 19.9 g and 19.2 g and 20 g and 19 g and 19.5 g
[4]; Topotecan and/or 7 i/p
  organ index, Liver (group mean): 4.8±0.6%
  organ index, Spleen (group mean): 1.3±0.2%

## C/C(NCCCc1cc(C(C)(C)C)c(O)c(C(C)(C)C)c1)=C1\C(=O)C=C2Oc3c(-c4csc(N/N=C/c5ccc(Br)cc5)n4)c(O)c(C)c(O)c3[C@@]2(C)C1=O [Compound 7, (4E)-10-{2-[(E)-2-[(4-bromophenyl)methylidene]hydrazin-1-yl]-1,3-thiazole-4-yl}-4-(1-{[3-(3,5-di-tret-butyl-4-hydroxyhenyl)propyl]amino}ethylidene)-11,13-dihydroxy-2,12-dimethyl-8-oxatricyclo [7.4.0.02,7]trideca-1(13),6,9,11-tetraen-3,5-dione]
Tdp1
  IC50: 0.12 ± 0.01 µM
[5]
  CC50 at 72 h: > 100 µM
[6]
  CC50 at 72 h: > 100 µM
[7]
  CC50 at 72 h: > 100 µM
[8]
  CC50 at 72 h: > 100 µM
[3]; mouse, in vivo
  changes in body weight of mice (in words): tendency towards an increase in the weight of animals
  organ index, Spleen (group mean): 1.3±0.2%
  tolerability / acute toxic effect (in words): well tolerated and did not cause acute toxic effect
[4]; [11]
  Weight of an individual with ascites: 24.5 g and 22.7 g and 21 g and 23.3 g
  Weight of an individual without ascites: 19.9 g and 16.5 g and 16.4 g and 19.4 g and 18.8 g
[4]; [10]
  Weight of an individual with ascites: 21.5 g and 22.2 g and 21.3 g and 22.1 g and 23.4 g and 24.9 g
  Weight of an individual without ascites: 18.4 g and 19.8 g and 16.8 g and 16.6 g and 19.4 g and 18.2 g and 18.7 g
[4]; 7 i/g, alone or with Topotecan
  organ index, Liver (group mean): 4.4±0.5%
  organ index, Spleen (group mean): 1.2±0.1%
[4]; Topotecan and/or 7 i/p
  organ index, Liver (group mean): 4.1±0.3%
  organ index, Spleen (group mean): 1.0±0.1%
[9]
  living cells (metabolic activity, MTT): more than 50%
